Data: PubChem BioAssay (NCI)
Where “and” joins values, the source holds several entries; their conditions need not be identical. Identical values can stand only once.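 1) Cells in 96-well plates. 2) Compound, 48 h, 5 concentrations. 3) Linear interpolation between surrounding doses. 4) Unreached endpoint = highest concentration. GI50 marks 50% less growth. The concentration for full growth arrest is given as TGI.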

Columns and labels:
Test in all cases: inhibition of tumour cell growth, NCI panel, 48 h
A498 renal = test system: A498 renal
DU-145 prostate = test system: DU-145 prostate
HCT-116 colon = test system: HCT-116 colon
HOP-62 NSCLC = test system: HOP-62 NSCLC
HOP-92 NSCLC = test system: HOP-92 NSCLC
IGROV1 ovarian = test system: IGROV1 ovarian
MALME-3M melanoma = test system: MALME-3M melanoma
SF-268 CNS = test system: SF-268 CNS
SK-OV-3 ovarian = test system: SK-OV-3 ovarian
UACC-257 melanoma = test system: UACC-257 melanoma

| SMILES | GI50 (A498 renal) [nM] | TGI (A498 renal) | TGI (DU-145 prostate) | GI50 (HCT-116 colon) [nM] | TGI (HCT-116 colon) | TGI (HOP-62 NSCLC) | TGI (HOP-92 NSCLC) | TGI (IGROV1 ovarian) | TGI (MALME-3M melanoma) | TGI (SF-268 CNS) | TGI (SK-OV-3 ovarian) | TGI (UACC-257 melanoma) |
| --- | --- | --- | --- | --- | --- | --- | --- | --- | --- | --- | --- | --- |
| c1ccc(CNC2CC(NCc3ccccn3)CC(NCc3ccccn3)C2)nc1 (configuration not stated) | 2060 | 3.31 µM and 6.25 µM and 3.51 µM | 8.52 µM and 17.1 µM | 1860 | 5.27 µM and 7.2 µM and 3.68 µM | 20.8 µM and 20.4 µM and 23 µM | 9.06 µM and 8.87 µM and 15.2 µM | 10.1 µM and 11.1 µM and 22.5 µM | 10.4 µM and 8.6 µM and 15.8 µM | 15.7 µM and 13.3 µM and 16.3 µM | 7.86 µM and 8.7 µM and 7.17 µM | 21.4 µM and 9.81 µM |
| CN1C/C(=C\c2cccs2)C2=NC(=S)NC(c3cccs3)C2C1 (configuration not stated) | – | > 100 µM | > 100 µM | – | > 100 µM | > 100 µM | > 100 µM | > 100 µM | > 100 µM | > 100 µM | > 100 µM | > 100 µM |
| COc1c2cc([N+](=O)[O-])cc1CNC(=O)CN1CCOCCOCCN(CCOCCOCC1)CC(=O)NC2 | – | > 100 µM | > 100 µM | – | > 100 µM | > 100 µM | > 100 µM | > 100 µM | > 100 µM | > 100 µM | > 100 µM | > 100 µM |
| C=C(C)C(=O)CC[C@@H](C)[C@H]1[C@@H](OC2OC(CO)C(O)C(O)C2O)C[C@@]2(C)[C@@H]3C[C@H](O)C4C(C)(C)[C@@H](OC5OC(CO)C(O)C(O)C5O)CC[C@@]45C[C@@]35CC[C@]12C (some centres not stated) | – | > 100 µM | > 100 µM | – | > 100 µM | > 100 µM | > 100 µM | > 100 µM | > 100 µM | > 100 µM | > 100 µM | > 100 µM |
| CC1=NN(C(=O)CSc2nnc(SCC(=O)N3N=C(C)CC3(O)c3ccccc3)s2)C(O)(c2ccccc2)C1 (configuration not stated) | – | > 100 µM | > 100 µM | – | > 100 µM | > 100 µM | > 100 µM | > 100 µM | > 100 µM | 47.2 µM | > 100 µM | > 100 µM |
| C=C(C)[C@@H]1CC[C@]2(C(=O)O)CC[C@]3(C)[C@H](CC[C@@H]4[C@@]5(C)CC(=O)C(C)(C)[C@@H]5CC[C@]43C)[C@@H]12 | – | 17.2 µM | > 25 µM | – | 8.83 µM | > 25 µM | > 25 µM | > 25 µM | > 25 µM | > 25 µM | > 25 µM | 22.3 µM |
| O=C1C(N2CCCC2)=CC(=O)c2c(O)c(N3CCCC3)c(Cl)c(O)c21 | – | > 10 µM | > 10 µM | – | > 10 µM | > 10 µM | > 10 µM | > 10 µM | > 10 µM | > 10 µM | > 10 µM | > 10 µM |
| O=C(CSCC(=O)N/N=C/c1cc(I)cc(I)c1O)N/N=C/c1cc(I)cc(I)c1O | – | 27.9 µM | > 100 µM | – | 33.9 µM | 33.4 µM | > 100 µM | 25.3 µM | 44.3 µM | 22.6 µM | 35 µM | > 100 µM |
| OCC1OC(c2scc3c(=S)nc[nH]c23)C(O)C1O (configuration not stated) | – | > 54.1 µM | 19.5 µM | – | > 84.3 µM | > 100 µM | 6.92 µM | 46.5 µM | > 72.9 µM | > 100 µM | 35.4 µM | > 46.4 µM |
| O=c1[nH]c(=O)n(C2CC(O)C(CO)O2)cc1I (configuration not stated) | – | > 100 µM | > 100 µM | – | > 100 µM | > 100 µM | > 100 µM | > 100 µM | > 100 µM | > 100 µM | > 100 µM | > 100 µM |
| c1ccc(C2=NC3(CCCCC3)N(c3nc4ccccc4s3)N2)nc1 | – | > 100 µM | > 100 µM | – | > 100 µM | > 100 µM | > 100 µM | > 100 µM | > 100 µM | > 100 µM | > 100 µM | 43.4 µM |
| Clc1ccc2c(SCC3CO3)c3ccccc3nc2c1 (configuration not stated) | – | 33.9 µM | 2.95 µM | – | 3.04 µM | 17.6 µM | 5.08 µM | 2.9 µM | 6.39 µM | > 100 µM | 53.4 µM | 9.3 µM |
| O=C(Cc1ccccc1)NCCc1ccc(O)c(O)c1 | – | > 100 µM | > 100 µM | – | > 100 µM | > 100 µM | > 100 µM | > 100 µM | > 100 µM | > 100 µM | > 100 µM | > 100 µM |
| O=C1c2c(F)c(F)c(F)c(F)c2SC2=NCCN12 | – | 32.9 µM | 31 µM | – | 5.24 µM | 32.6 µM | 9.19 µM | 17.7 µM | 12.8 µM | 28.2 µM | 28.7 µM | 21.8 µM |
| CCOc1cc2c(cc1O)/C(=N\N)C[C@@H]1[C@@H]2CC[C@]2(C)[C@@H](O)CC[C@@H]12 | – | > 100 µM | > 66.8 µM | – | > 37.8 µM | > 100 µM | 49.9 µM | 39.2 µM | 20.8 µM | > 44.9 µM | > 100 µM | > 50.9 µM |
| O=S(=O)(c1ccc(Br)cc1)n1c2ccc(Br)cc2c2nc3ccccc3nc21 | – | > 100 µM | > 100 µM | – | > 100 µM | > 100 µM | > 100 µM | > 100 µM | > 100 µM | > 100 µM | > 100 µM | > 100 µM |
| CCCCNC1CCC2(SCCS2)c2[nH]c3ccccc3c21 (configuration not stated) | – | 76.7 µM | > 93.8 µM | – | 50.1 µM | > 100 µM | > 81.9 µM | > 100 µM | 33.8 µM | > 100 µM | > 100 µM | 15.1 µM |
| C=CCC1(O)c2ccccc2C(=O)c2c(O)ccc(O)c21 (configuration not stated) | – | 25.8 µM | 38 µM | – | 27.3 µM | > 86.8 µM | 41.1 µM | > 100 µM | 28.8 µM | 56.9 µM | 40.7 µM | 19 µM |
| O=C(O)[C@H]1[C@@H](C2CCCCC2)O[C@@H](C2CCCCC2)O[C@H]1C(F)(F)F | – | 35.9 µM | > 100 µM | – | > 100 µM | 50.6 µM | 61.3 µM | 35.9 µM | 73.3 µM | 44.2 µM | > 100 µM | 96.1 µM |
